Earlier results on 4 compounds are cited in PMC9694544, “Conteltinib (CT-707) in patients with advanced ALK-positive non-small cell lung cancer: a multicenter, open-label, first-in-human phase 1 study” (BMC Medicine, 2022).

Data set [1] deals with patients with ALK-positive NSCLC. The note with it: cited from earlier work.
The next data set deals with ALK-positive NSCLC. Conditions: cited from earlier work.
The mark [2] stands for this setting: ALK TKI-naïve patients, at RP2D.
Setting [3] is: patients who received crizotinib previously, at RP2D.
Where [4] appears, read: patients who received crizotinib previously, at MTD.
Setting [5] is: ALK TKI-naïve patients, at the dose around RP2D.
Setting [6] is: patients who received crizotinib previously, at the dose around RP2D.
Where [7] appears, read: patients who received crizotinib previously, at the dose-expansion phase.

Where two headings read alike, the source gives them in different places.

Turning to `COc1cc(N2CCC(N3CCN(C)CC3)CC2)ccc1Nc1ncc(Cl)c(Nc2ccccc2P(C)(C)=O)n1` [brigatinib], the “incidence of grade ≥ 3 TRAEs” value in data set [1] is given as 36%. In the data set with ALK-positive NSCLC (setting [2]), the ORR is on record as 100% and the “median PFS” value was 30.8 months. Moreover, in the data set with ALK-positive NSCLC (setting [3]), the ORR is 72% and the “median PFS” value is on record as 12.9 months.
For `Cc1cc(Nc2ncc(Cl)c(Nc3ccccc3S(=O)(=O)C(C)C)n2)c(OC(C)C)cc1C1CCNCC1` [ceritinib], in data set [1], the “incidence of grade ≥ 3 TRAEs” value was 49% and the rash is 13%. In the data set with ALK-positive NSCLC (ALK TKI-naïve patients, at MTD), the ORR was 59% and the “median PFS” value was 18.4 months. In addition, in the data set with ALK-positive NSCLC (setting [4]), the ORR is 56% and the “median PFS” value is reported as 6.9 months.
For `C[C@@H]1CN(C(=O)c2ccc(NC(=O)c3cc(O[C@H](C)c4c(Cl)ccc(F)c4Cl)c(N)nn3)cc2)C[C@H](C)N1` [ensartinib], the “incidence of grade ≥ 3 TRAEs” value in data set [1] was 23%. Moreover, the rash in data set [1] is on record as 56%; in data set [1] (grade ≥ 3), 12%. The ORR in the data set on ALK-positive NSCLC (setting [5]) is recorded as 80.0%; in the data set on ALK-positive NSCLC (setting [6]) it was 69.0%. Also, the “median PFS” value is reported as 26.2 months with ALK-positive NSCLC (setting [5]) and 9.0 months with ALK-positive NSCLC (setting [6]).
Turning to `COc1cc(N2CCC3(CCN(C)CC3)CC2)ccc1Nc1ncc(Cl)c(Nc2ccccc2P(C)(C)=O)n1` [iruplinalkib], in data set [1], the “incidence of grade ≥ 3 TRAEs” value is 35% and the rash is recorded as 13%. For the same compound, in the data set with ALK-positive NSCLC (ALK TKI-naïve patients, at the dose-expansion phase), the ORR was 76.3%. In addition, in the data set with ALK-positive NSCLC (setting [7]), the ORR is 45.7% and the “median PFS” value was 6.9 months.
